Measurements published in ChEMBL document CHEMBL1811812, “Identification of a novel selective H1-antihistamine with optimized pharmacokinetic properties for clinical evaluation in the treatment of insomnia” (Bioorg Med Chem Lett, 2010).
Activity calls are given as the source filed them. The rule behind the calls is not given here.

Tests used:
[1] = system: Rattus norvegicus; test: Effect on sleep-awake cycle in EEG/EMG rat model assessed as increase in non rapid eye movement sleep at 3 mg/kg measured up to 4 hrs relative to control; type: functional
[2] = system: Rattus norvegicus; test: Effect on sleep-awake cycle in EEG/EMG rat model assessed as latency to 1 min NREM sleep at 3 mg/kg measured up to 4 hrs relative to control; type: functional
[3] = Elimination half life in human at 50 mg by RIA; type: ADME, organism-based; settings: in vivo, read-out: beta t1/2 (converted)
[4] = organism: Homo sapiens; test: Toxicity in human assessed as residual effect at 1 mg to 3 mg; type: organism-based; settings: in vivo
[5] = organism: Homo sapiens; test: Antiinsomnic activity in human assessed as duration of sleep maintenance at 1 mg; type: functional
[6] = organism: Homo sapiens; test: Antiinsomnic activity in human assessed as duration of sleep maintenance at 1 mg after 8 hrs; type: functional, organism-based
[7] = system: Rattus norvegicus; test: Effect on sleep-awake cycle in EEG/EMG rat model assessed as increase in non rapid eye movement sleep at 30 mg/kg measured up to 4 hrs relative to control; type: functional
[8] = system: Rattus norvegicus; test: Effect on sleep-awake cycle in EEG/EMG rat model assessed as latency to 1 min NREM sleep at 30 mg/kg measured up to 4 hrs relative to control; type: functional
[9] = organism: Homo sapiens; test: Selectivity for histamine H1 receptor over histamine H2 receptor in human conjuctival mast cells
[10] = system: Rattus norvegicus; test: Effect on sleep-awake cycle in EEG/EMG rat model assessed as increase in non rapid eye movement sleep at 60 mg/kg measured up to 4 hrs relative to control; type: functional
[11] = system: Rattus norvegicus; test: Effect on sleep-awake cycle in EEG/EMG rat model assessed as latency to 1 min NREM sleep at 60 mg/kg measured up to 4 hrs relative to control; type: functional
[12] = Clearance in EEG/EMG rat model; settings: in vivo
[13] = Dissociation constant, pKa of the compound
[14] = AUC (0 to t) in human at […], po; type: ADME, organism-based; set-up: route oral; settings: plasma
[15] = Systemic clearance in human at […]; type: ADME, organism-based; settings: in vivo
[16] = Half life in human at […], po; type: ADME, organism-based; set-up: route oral; settings: in vivo
[17] = Plasma concentration in human at […] after 1 hr; type: ADME, organism-based
[18] = target: Cytochrome P450 3A4 (Homo sapiens, UniProt P08684)
[19] = clinical; settings: human, plasma, 0.1 mg/kg
Description: AUC (0 to t) in human at 0.1 mg/kg

[20] = clinical; settings: human, in vivo, po, 0.1 mg/kg
Description: Half life in human at 0.1 mg/kg, po and iv administered as single dose

[21] = Inhibition of H2 receptor

Sequence of Cytochrome P450 3A4 (P08684 whole entry): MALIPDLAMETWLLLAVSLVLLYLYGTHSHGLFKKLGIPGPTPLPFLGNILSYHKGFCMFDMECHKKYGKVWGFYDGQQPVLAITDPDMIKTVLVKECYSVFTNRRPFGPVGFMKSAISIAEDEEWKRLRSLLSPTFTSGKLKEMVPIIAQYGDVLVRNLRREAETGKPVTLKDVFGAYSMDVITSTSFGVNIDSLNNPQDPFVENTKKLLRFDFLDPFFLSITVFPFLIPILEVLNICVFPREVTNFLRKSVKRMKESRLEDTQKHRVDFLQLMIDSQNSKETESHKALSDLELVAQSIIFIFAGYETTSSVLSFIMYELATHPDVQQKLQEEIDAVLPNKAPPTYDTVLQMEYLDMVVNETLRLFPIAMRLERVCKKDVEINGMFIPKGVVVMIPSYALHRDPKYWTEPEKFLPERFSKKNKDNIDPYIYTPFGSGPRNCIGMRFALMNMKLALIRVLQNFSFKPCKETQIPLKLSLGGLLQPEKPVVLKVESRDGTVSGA

With `CN(C)CCC1=C(Cc2cccnn2)c2ccc(F)cc2C1` the Activity [1] was 136% and the Activity [2] was 106%.
In the case of `CN(C)CCC=C1c2ccccc2COc2ccccc21` [DOXEPIN], the half-life [3] is reported as 18 h, the Activity [4] is reported as “Non-toxic” and the Time [5] is reported as 8 h. For the same molecule, the Activity [6] was “inactive”.
`Cc1ccc(-c2nc3ccc(C)cn3c2CC(=O)N(C)C)cc1` [ZOLPIDEM] gave an Activity [7] of 205% and an Activity [8] of 17%.
In the case of `C[C@H](C1=C(CCN(C)C)Cc2ccccc21)c1ccccn1`, the Selectivity ratio [9] is reported as 100.
With `C[C@H](C1=C(CCN(C)C)Cc2ccccc21)c1cnccn1` the Activity [10] was 145% and the Activity [11] was 109%.
With `C[C@@H](c1ccccn1)c1c(CCN(C)C)sc2ccccc12` the clearance [12] was over 68 mL/min/kg, the pKa [13] was 8.5 and the AUC(0-t) [14] was 1.9 ng·h/mL. The clearance [15] was 3.8 mL/min/kg, the half-life [16] was 3.6 h and the concentration at 1 h [17] was 4 ng/mL. The Activity [7] was 142%, the Activity [8] was 124% and the IC50 [18] was over 10000 nM. It also gave an AUC(0-t) [19] of 2.8 ng·h/mL and a half-life [20] of 6.8 h.
`COc1nccnc1[C@H](C)C1=C(CCN(C)C)Cc2cc(F)ccc21` gave a Ki [21] of 4.5 nM.
